Data as given in paper PMC4332533 (Neuropharmacology, 2014).
Several values for one entry are separate records, joined by “and”; a condition that tells them apart may be missing. Equal values may be shown once.

Tests used:
[1] = molecular target: α3E173Aβ2 receptor (Rattus norvegicus, UniProt P04757+P12390, E200A); assay: Macroscopic evoked currents, two-electrode voltage-clamp, Xenopus laevis oocytes; assay type: cell-based
[2] = molecular target: T1, α3S125Cβ2Q39C receptor (Rattus norvegicus, UniProt P04757+P12390, Q65C/S152C); assay: as above
[3] = molecular target: α3β2Q39C receptor (Rattus norvegicus, UniProt P04757+P12390, Q65C); assay: as above; assay type: cell-based; conditions: mutation-modulator Ɽ from EC50s vs wild type; 10 µM Mor
[4] = molecular target: α3Y168Fβ2 receptor (Rattus norvegicus, UniProt P04757+P12390, Y195F); assay: as above; assay type: cell-based; conditions: ACh + 10 µM Mor EC50 comparison; Table 1
[5] = molecular target: α3S125Yβ2 receptor (Rattus norvegicus, UniProt P04757+P12390, S152Y); assay: as above
[6] = molecular target: α3S125Yβ2A127Y receptor (Rattus norvegicus, UniProt P04757+P12390, A153Y/S152Y); assay: as above; assay type: cell-based
[7] = molecular target: α3S125Yβ2W149A receptor (Rattus norvegicus, UniProt P04757+P12390, S152Y/W175A); assay: as above; assay type: cell-based
[8] = molecular target: T2, wild type α3β2 receptor (Rattus norvegicus, UniProt P04757+P12390); conditions: Mor alone, cited from earlier work
[9] = molecular target: T2, wild type α3β2 receptor; assay: Macroscopic evoked currents, two-electrode voltage-clamp, Xenopus laevis oocytes; assay type: cell-based; conditions: 10 µM Mor; 300 µM ACh; control measurement before oxidation (Fig. 2)
[10] = molecular target: α3S125Cβ2 receptor (Rattus norvegicus, UniProt P04757+P12390, S152C); assay: as above; assay type: cell-based
[11] = molecular target: α3β2D190Q receptor (Rattus norvegicus, UniProt P04757+P12390, D216Q); assay: as above; assay type: cell-based; conditions: mutation-modulator Ɽ from EC50s vs wild type; 10 µM Mor
[12] = molecular target: α3Q37Cβ2 receptor (Rattus norvegicus, UniProt P04757+P12390, Q64C); assay: as above; assay type: cell-based; conditions: mutation-modulator Ɽ from EC50s vs wild type; 10 µM Mor
[13] = molecular target: α3Y168Fβ2D190Q receptor (Rattus norvegicus, UniProt P04757+P12390, D216Q/Y195F); assay: as above; assay type: cell-based; conditions: mutation-modulator Ɽ from EC50s vs wild type; 10 µM Mor
[14] = test system: α3β2W149A receptor; conditions: Mor alone; relative to saturating ACh; no Hill fit possible; cited from earlier work
[15] = molecular target: α3E173Aβ2R46V receptor (Rattus norvegicus, UniProt P04757+P12390, E200A/R46V); assay: Macroscopic evoked currents, two-electrode voltage-clamp, Xenopus laevis oocytes; assay type: cell-based; conditions: mutation-modulator Ɽ from EC50s vs wild type; 10 µM Mor
[16] = molecular target: T3, α3Y168Cβ2D190C receptor (Rattus norvegicus, UniProt P04757+P12390, D216C/Y195C); assay: as above; assay type: cell-based
[17] = molecular target: T4, α3Q37Cβ2A127C receptor (Rattus norvegicus, UniProt P04757+P12390, A153C/Q64C); assay: as above; assay type: cell-based; conditions: mutation-modulator Ɽ from EC50s vs wild type; 10 µM Mor
[18] = molecular target: α3β2D190C receptor (Rattus norvegicus, UniProt P04757+P12390, D216C); assay: as above; assay type: cell-based
[19] = molecular target: α3β2A127C receptor (Rattus norvegicus, UniProt P04757+P12390, A153C); assay: as above; assay type: cell-based; conditions: mutation-modulator Ɽ from EC50s vs wild type; 10 µM Mor
[20] = molecular target: α3β2R46V receptor (Rattus norvegicus, UniProt P04757+P12390, R72V); assay: as above; assay type: cell-based; conditions: Mor alone; relative to saturating ACh; no Hill fit possible
[21] = molecular target: α3β2A127Y receptor (Rattus norvegicus, UniProt P04757+P12390, A153Y); assay: as above; assay type: cell-based
[22] = molecular target: T3, α3Y168Cβ2D190C receptor; assay: Disulfide cross-linking experiments; assay type: cell-based; conditions: subsequent DTT treatment (Supplemental Fig. S2B)
[23] = molecular target: T1, α3S125Cβ2Q39C receptor; assay: Disulfide cross-linking experiments; assay type: cell-based; conditions: 40–100 µM DTT after H2O2 (Fig. 6)
[24] = molecular target: T4, α3Q37Cβ2A127C receptor; assay: Disulfide cross-linking experiments; assay type: cell-based; conditions: 40 µM DTT after oxidation (Fig. 7)
[25] = molecular target: α3E173Cβ2R46C receptor (Rattus norvegicus, UniProt P04757+P12390, E200C/R46C); assay: Disulfide cross-linking experiments; assay type: cell-based; conditions: DTT after H2O2 (Supplemental Fig. S4)
[26] = mutation-modulator Ɽ from EC50s vs wild type, 10 µM Mor
[27] = Mor alone, relative to saturating ACh
[28] = 10 µM Mor, saturating nicotine, 10 µM epibatidine (Fig. 8)

Sequence of α3S125Yβ2A127Y receptor (P04757 26-499 S152Y): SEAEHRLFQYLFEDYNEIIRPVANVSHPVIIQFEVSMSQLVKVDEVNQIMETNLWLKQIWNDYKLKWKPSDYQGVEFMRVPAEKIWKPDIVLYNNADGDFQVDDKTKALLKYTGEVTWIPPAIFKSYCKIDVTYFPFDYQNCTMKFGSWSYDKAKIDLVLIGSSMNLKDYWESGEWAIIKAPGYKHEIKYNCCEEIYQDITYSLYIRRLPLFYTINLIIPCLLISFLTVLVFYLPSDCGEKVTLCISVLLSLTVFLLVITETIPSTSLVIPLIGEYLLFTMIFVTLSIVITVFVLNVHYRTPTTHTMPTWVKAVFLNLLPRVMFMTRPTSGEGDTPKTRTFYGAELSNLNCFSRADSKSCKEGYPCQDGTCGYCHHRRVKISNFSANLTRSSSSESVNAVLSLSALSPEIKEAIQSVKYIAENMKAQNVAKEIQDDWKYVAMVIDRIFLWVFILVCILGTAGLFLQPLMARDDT
Sequence of α3S125Yβ2A127Y receptor (P12390 25-500 A153Y): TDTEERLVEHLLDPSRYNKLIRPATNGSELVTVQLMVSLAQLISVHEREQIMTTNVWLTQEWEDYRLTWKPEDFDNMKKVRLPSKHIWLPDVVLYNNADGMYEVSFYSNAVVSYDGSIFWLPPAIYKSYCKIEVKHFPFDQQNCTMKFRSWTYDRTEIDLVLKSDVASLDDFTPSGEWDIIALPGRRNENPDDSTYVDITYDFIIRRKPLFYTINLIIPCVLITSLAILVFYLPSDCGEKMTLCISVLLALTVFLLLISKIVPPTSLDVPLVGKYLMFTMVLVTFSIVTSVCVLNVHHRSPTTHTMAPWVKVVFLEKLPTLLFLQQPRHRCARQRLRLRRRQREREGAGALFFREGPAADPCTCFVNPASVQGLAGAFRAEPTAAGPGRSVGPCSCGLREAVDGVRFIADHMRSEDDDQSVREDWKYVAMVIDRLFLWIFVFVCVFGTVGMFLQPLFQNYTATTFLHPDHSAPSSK
Sequence of α3S125Yβ2W149A receptor (P04757 26-499 S152Y): as the sequence (P04757 26-499 S152Y) above
Sequence of α3S125Yβ2W149A receptor (P12390 25-500 W175A): as the sequence (P12390 25-500 A153Y) above, with Y129A, W151A counted along it
Sequence of α3S125Yβ2 receptor (P04757 26-499 S152Y): as the sequence (P04757 26-499 S152Y) above
Sequence of α3S125Yβ2 receptor (P12390 25-500, stated change not applied): as the sequence (P12390 25-500 A153Y) above, with Y129A counted along it
Sequence of α3β2A127Y receptor (P04757 26-499): as the sequence (P04757 26-499 S152Y) above, with Y127S counted along it
Sequence of α3β2A127Y receptor (P12390 25-500 A153Y): as the sequence (P12390 25-500 A153Y) above
T2 sequence (P04757 26-499): as the sequence (P04757 26-499 S152Y) above, with Y127S counted along it
T2 sequence (P12390 25-500): as the sequence (P12390 25-500 A153Y) above, with Y129A counted along it
T1 sequence (P04757 26-499 S152C): as the sequence (P04757 26-499 S152Y) above, with Y127C counted along it
T1 sequence (P12390 25-500 Q65C): as the sequence (P12390 25-500 A153Y) above, with Q41C, Y129A counted along it
Sequence of α3S125Cβ2 receptor (P04757 26-499 S152C): as the sequence (P04757 26-499 S152Y) above, with Y127C counted along it
Sequence of α3S125Cβ2 receptor (P12390 25-500, stated change not applied): as the sequence (P12390 25-500 A153Y) above, with Y129A counted along it
T3 sequence (P04757 26-499 Y195C): as the sequence (P04757 26-499 S152Y) above, with Y127S, Y170C counted along it
T3 sequence (P12390 25-500 D216C): as the sequence (P12390 25-500 A153Y) above, with Y129A, D192C counted along it
T4 sequence (P04757 26-499 Q64C): as the sequence (P04757 26-499 S152Y) above, with Q39C, Y127S counted along it
T4 sequence (P12390 25-500 A153C): as the sequence (P12390 25-500 A153Y) above, with Y129C counted along it
Sequence of α3β2D190C receptor (P04757 26-499): as the sequence (P04757 26-499 S152Y) above, with Y127S counted along it
Sequence of α3β2D190C receptor (P12390 25-500 D216C): as the sequence (P12390 25-500 A153Y) above, with Y129A, D192C counted along it
Sequence of α3E173Aβ2 receptor (P04757 26-499 E200A): as the sequence (P04757 26-499 S152Y) above, with Y127S, E175A counted along it
Sequence of α3E173Aβ2 receptor (P12390 25-500): as the sequence (P12390 25-500 A153Y) above, with Y129A counted along it
Sequence of α3Q37Cβ2 receptor (P04757 26-499 Q64C): as the sequence (P04757 26-499 S152Y) above, with Q39C, Y127S counted along it
Sequence of α3Q37Cβ2 receptor (P12390 25-500): as the sequence (P12390 25-500 A153Y) above, with Y129A counted along it
Sequence of α3β2D190Q receptor (P04757 26-499): as the sequence (P04757 26-499 S152Y) above, with Y127S counted along it
Sequence of α3β2D190Q receptor (P12390 25-500 D216Q): as the sequence (P12390 25-500 A153Y) above, with Y129A, D192Q counted along it
Sequence of α3β2A127C receptor (P04757 26-499): as the sequence (P04757 26-499 S152Y) above, with Y127S counted along it
Sequence of α3β2A127C receptor (P12390 25-500 A153C): as the sequence (P12390 25-500 A153Y) above, with Y129C counted along it
Sequence of α3β2Q39C receptor (P04757 26-499): as the sequence (P04757 26-499 S152Y) above, with Y127S counted along it
Sequence of α3β2Q39C receptor (P12390 25-500 Q65C): as the sequence (P12390 25-500 A153Y) above, with Q41C, Y129A counted along it
Sequence of α3β2R46V receptor (P04757 26-499): as the sequence (P04757 26-499 S152Y) above, with Y127S counted along it
Sequence of α3β2R46V receptor (P12390 25-500 R72V): as the sequence (P12390 25-500 A153Y) above, with R48V, Y129A counted along it
Sequence of α3E173Aβ2R46V receptor (P04757 26-499 E200A): as the sequence (P04757 26-499 S152Y) above, with Y127S, E175A counted along it
Sequence of α3E173Aβ2R46V receptor (P12390 25-500 R46V): as the sequence (P12390 25-500 A153Y) above, with R22V, Y129A counted along it
Sequence of α3Y168Fβ2 receptor (P04757 26-499 Y195F): as the sequence (P04757 26-499 S152Y) above, with Y127S, Y170F counted along it
Sequence of α3Y168Fβ2 receptor (P12390 25-500): as the sequence (P12390 25-500 A153Y) above, with Y129A counted along it
Sequence of α3Y168Fβ2D190Q receptor (P04757 26-499 Y195F): as the sequence (P04757 26-499 S152Y) above, with Y127S, Y170F counted along it
Sequence of α3Y168Fβ2D190Q receptor (P12390 25-500 D216Q): as the sequence (P12390 25-500 A153Y) above, with Y129A, D192Q counted along it
Sequence of α3E173Cβ2R46C receptor (P04757 26-499 E200C): as the sequence (P04757 26-499 S152Y) above, with Y127S, E175C counted along it
Sequence of α3E173Cβ2R46C receptor (P12390 25-500 R46C): as the sequence (P12390 25-500 A153Y) above, with R22C, Y129A counted along it

## Cc1ccsc1C=CC1=NCCCN1C.O=C(O)C(O)C(O)C(=O)O [Mor, 1,4,5,6-tetrahydro-1-methyl-2-(2-[3-methyl-2-thienyl]ethenyl)pyrimidine, tartrate salt]
[1]; Mor alone, relative to saturating ACh, no Hill fit possible
  Emax (Mor Activation): 0.16 ± 0.01 [4]
[1]; [26]
  R(mut-Mor): 1.4
[2]
  EC50: 0.53 ± 0.21 µM
[2]; 10 µM Mor, 300 µM ACh, control measurement before oxidation (Fig. 2)
  potentiation (IACh+Mor/IACh): greater than 2.5 fold
[2]; Mor alone, Hill fit
  nH (Mor Activation): 0.92 ± 0.30 [4–8]
[2]; [27]
  Emax (Mor Activation): 1.00 ± 0.14
[2]; [26]
  R(mut-Mor): 4.5
[3]
  R(mut-Mor): 0.10
[4]
  decrease in EC50 for Mor modulation vs wild type: 70 fold
[5]
  EC50: 2.3 ± 0.7 µM
[5]; 10 µM Mor alone (Fig. 8, Fig. 5A)
  response to Mor alone: full agonist
[5]; 10 µM Mor, 300 µM ACh (Fig. 8)
  effect on ACh responses: modestly potentiated
[5]; [28]
  effect on responses evoked by nicotine and epibatidine: inhibited
[5]; ACh + 10 µM Mor EC50 comparison
  decrease in EC50 for Mor modulation vs wild type: 1000 fold
[5]; [27]
  Emax (Mor Activation): 1.7 and 1.69 ± 0.27
[5]; [26]
  R(mut-Mor): 0.0076
[6]
  EC50: 1.9 ± 0.2 µM
[6]; 10 µM Mor, 300 µM ACh (Fig. 8)
  effect on ACh responses: modestly potentiated
[6]; [28]
  effect on responses evoked by nicotine and epibatidine: inhibited
[6]; Mor alone, Hill fit
  nH (Mor Activation): 3.18 ± 0.63
[6]; [27]
  Emax (Mor Activation): 0.16 ± 0.01 [3]
[6]; [26]
  R(mut-Mor): 1.2
[6]; thermodynamic cycle α3S125Y-β2A127Y from Mor alone EC50s
  Ω (Mor alone activation): 3.4
[7]
  EC50: 25 ± 9 µM
[7]; Mor alone, Hill fit
  nH (Mor Activation): 1.01 ± 0.29 [5–6]
[7]; [27]
  Emax (Mor Activation): 0.21 ± 0.02
[7]; [26]
  R(mut-Mor): 7.2
[8]; Hill fit
  nH (Mor Activation): 3.1 ± 1.6
[8]; relative to saturating ACh
  Emax (Mor Activation): 0.2 and 0.20 ± 0.04
[8]; read-out: EC50 (Mor Activation), Hill fit
  EC50: 20 ± 2 µM
[9]
  potentiation (IACh+Mor/IACh): greater than 2.5 fold
[10]
  EC50: 92 ± 33 µM
[10]; Mor alone, Hill fit
  nH (Mor Activation): 0.54 ± 0.11 [4]
[10]; [27]
  Emax (Mor Activation): 0.028 ± 0.006
[10]; [26]
  R(mut-Mor): 1.3
[11]
  R(mut-Mor): 7.1
[12]
  R(mut-Mor): 5.3
[13]
  R(mut-Mor): 0.57
[14]
  Emax (Mor Activation): 0.015 ± 0.004 [3]
[15]
  R(mut-Mor): 9.0
[16]; 10 µM Mor, 1 mM ACh, control measurement before oxidation (Fig. 2)
  potentiation (IACh+Mor/IACh): greater than 2.5 fold
[16]; Ɽ=EC50(WT,A)·EC50(mut,A+M)/EC50(WT,A+M)·EC50(mut,A), M = 10 µM Mor
  R(mut-Mor): 0.52
[17]
  R(mut-Mor): 1.7
[18]; 10 µM modulator (Fig. 3B)
  potentiation of ACh-evoked currents: eliminated
[18]; [26]
  R(mut-Mor): 10
[19]
  R(mut-Mor): 3.3
[20]
  Emax (Mor Activation): 0.03 ± 0.01 [7]
[21]
  EC50: 4.8 ± 2.4 µM
[21]; 10 µM Mor alone (Fig. 8)
  response to Mor alone: nearly negligible current
[21]; 10 µM Mor, 300 µM ACh (Fig. 8)
  effect on ACh responses: modestly potentiated
[21]; [28]
  effect on responses evoked by nicotine and epibatidine: inhibited
[21]; Mor alone, Hill fit
  nH (Mor Activation): 1.08 ± 0.40
[21]; [27]
  Emax (Mor Activation): 0.05 ± 0.01 [5]
[21]; [26]
  R(mut-Mor): 9.4

## Clc1ccc(C2CC3CCC2N3)cn1 (centres unmarked) [epibatidine]
[5]; saturating agonist (Fig. 8)
  efficacy compared with ACh: greater efficacy

## O[C@@H](CS)[C@@H](O)CS (racemic) [DTT, dithiothreitol]
[22]
  reversal of oxidation-induced current decrease by reduction: completely reversed
[23]
  reduction of the disulfide bond after oxidation: effective resistance
[24]
  reduction of the disulfide bond after oxidation: essentially resistant
[25]
  change of currents upon reduction following oxidation: did decrease currents, but not completely to the control level
